Structures can show the parent of a compound that is named as a salt. Starred links: 1 amine or outer side, 2 acyl side, 3 side chain; linkers in the order of their positions; H or OH if unused. Positions of bridges follow the written chain, without caps; N, C: chain ends. Non-standard residues stand in square brackets, D forms with d. Residues, ends and D or L forms follow the SMILES beside them. *: point of attachment. Trp(7-Me) = Cc1cccc2c(C[C@H](N)C(=O)O)c[nH]c12; Hexanoyl(6-NMe3+) = C[N+](C)(C)CCCCCC(=O)*; X63 = C[N+]1(C)CCC(N[*:1])(C(=O)[*:2])CC1; 2Nal = N[C@@H](Cc1ccc2ccccc2c1)C(=O)O; AEF = NCCOc1ccc(C[C@H](N)C(=O)O)cc1; Piperazinyl(4-Me) = CN1CCN(*)CC1; 3Pal = N[C@@H](Cc1cccnc1)C(=O)O; Lys(Me) = CNCCCC[C@H](N)C(=O)O; Pen = CC(C)(S)[C@H](N)C(=O)O; Thp = NC1(C(=O)O)CCOCC1; Dap = NC[C@H](N)C(=O)O; X3 = C[N+](C)(C)CCCCC*; Me2NCH2CH2 = CN(C)CC*; Tfa = O=C(C(F)(F)F)*; X25 = COCCOCCN(C)*; Sar = CNCC(=O)O
Assays:
[1] = Exposed Polar Surface Area (EPSA); assay type: physicochemical; conditions: SFC on Chirex 3014 column; sample 1 mM DMSO stock; read-out: EPSA
Method in brief: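 SFC retention on a Chirex 3014 (S)-valine/(R)-1-(α-naphthyl)ethylamine column, 35 °C, CO2 with MeOH (20 mM ammonium formate) gradient 5–60% at 20%/min, 14 MPa outlet. Retention times converted to EPSA (Å^2) via linear calibration with 8 standards; samples from 1 mM DMSO stock, run in duplicate.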

IL-23R = target: T1, IL-23R (Homo sapiens, UniProt Q5VWK5); assay: IL23R Reporter Assay; assay type: cell-based; conditions: HEK293 cells containing IL-23R, IL-12RP1 and STAT-inducible firefly luciferase reporter; 10 ng/mL IL-23 (EC90); 5 h at 37° C.; read-out: IL23R Reporter Assay
T1 construct: host or cells: HEK293
T1 sequence (Q5VWK5 24-629): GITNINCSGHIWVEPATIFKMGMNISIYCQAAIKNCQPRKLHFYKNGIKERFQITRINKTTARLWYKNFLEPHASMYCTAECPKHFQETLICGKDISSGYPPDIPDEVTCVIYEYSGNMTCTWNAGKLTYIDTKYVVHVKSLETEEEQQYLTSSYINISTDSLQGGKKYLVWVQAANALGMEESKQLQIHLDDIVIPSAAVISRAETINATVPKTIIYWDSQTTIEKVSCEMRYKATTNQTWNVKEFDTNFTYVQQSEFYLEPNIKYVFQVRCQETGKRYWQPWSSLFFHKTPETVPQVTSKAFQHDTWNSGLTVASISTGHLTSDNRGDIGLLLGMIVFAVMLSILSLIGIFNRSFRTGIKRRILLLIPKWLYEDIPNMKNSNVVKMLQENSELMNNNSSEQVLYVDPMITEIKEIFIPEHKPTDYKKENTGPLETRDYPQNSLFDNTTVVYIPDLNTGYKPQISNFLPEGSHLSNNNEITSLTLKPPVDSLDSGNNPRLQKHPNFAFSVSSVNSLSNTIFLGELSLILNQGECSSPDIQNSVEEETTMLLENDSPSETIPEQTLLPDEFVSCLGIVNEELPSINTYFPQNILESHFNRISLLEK

Row | EPSA [1] [A^2] | IC50 (IL-23R) [nM] | Structure (SMILES)
1 | 139 | 4.6 | Cc1cccc2c(C[C@@H]3NC(=O)[C@H]([C@@H](C)O)NC(=O)[C@H](CC(=O)N(C)C)NC(=O)[C@@H](NC(=O)[C@@H](CCCCNC(=O)CCCCC[N+](C)(C)C)NC(=O)C(F)(F)F)C(C)(C)SSC(C)(C)[C@@H](C(=O)N[C@@H](Cc4ccc(OCCN(C)C)cc4)C(=O)N[C@@H](Cc4ccc5ccccc5c4)C(=O)NC4(C(=O)N[C@@H](CCC(=O)N(C)C)C(=O)N[C@@H](CC(N)=O)C(=O)N[C@@H](Cc5cccnc5)C(=O)N(C)CC(=O)N(C)C)CCOCC4)NC(=O)[C@H](CCC(=O)N(C)C)NC3=O)c[nH]c12 [compound 96, CF3CO-k(5cpa)-Pen(3)-N(N(Me)2)-T-7MeW-Q(N(Me)2)-Pen(3)-AEF(N(Me)2)-2Nal-THP-Q(N(Me)2)-N-3Pya-Sar-CON(Me)2] (Tfa-[dK](Hexanoyl(6-NMe3+))[Pen]D(NMe2)T[Trp(7-Me)]E(NMe2)[Pen]Y(Me2NCH2CH2)[2Nal][Thp]E(NMe2)N[3Pal][Sar]-NMe2; disulfide 2-7)
2 | 152 | 5.8 | Cc1cccc2c(C[C@@H]3NC(=O)[C@H]([C@@H](C)O)NC(=O)[C@H](CC(=O)N(C)C)NC(=O)[C@@H](NC(=O)CCCCC[N+](C)(C)C)C(C)(C)SSC(C)(C)[C@@H](C(=O)N[C@@H](Cc4ccc(OCCN(C)C)cc4)C(=O)N[C@@H](Cc4ccc5ccccc5c4)C(=O)NC4(C(=O)N[C@@H](CCC(=O)O)C(=O)N[C@@H](CC(N)=O)C(=O)N[C@@H](Cc5cccnc5)C(=O)N(C)CC(=O)N(C)C)CCOCC4)NC(=O)[C@H](CCC(=O)N(C)C)NC3=O)c[nH]c12 [compound 97, 5cpaCO-Pen(3)-N(N(Me)2)-T-7MeW-Q(N(Me)2)-Pen(3)-AEF(N(Me)2)-2Nal-THP-E-N-3Pya-Sar-CON(Me)2] ({Hexanoyl(6-NMe3+)}-[Pen]D(NMe2)T[Trp(7-Me)]E(NMe2)[Pen]Y(Me2NCH2CH2)[2Nal][Thp]EN[3Pal][Sar]-NMe2; disulfide 1-6)
3 | 139 | 4.6 | CC(=O)NC[C@H](NC(=O)C1(NC(=O)[C@H](Cc2ccc3ccccc3c2)NC(=O)[C@H](Cc2ccc(OCCN(C)C)cc2)NC(=O)[C@H]2NC(=O)[C@H](CCCCN(C)C(C)=O)NC(=O)[C@H](Cc3c[nH]c4c(C)cccc34)NC(=O)[C@H]([C@@H](C)O)NC(=O)[C@H](CC(=O)N(C)C)NC(=O)[C@@H](NC(C)=O)C(C)(C)SSC2(C)C)CCOCC1)C(=O)N[C@@H](CC(N)=O)C(=O)N[C@@H](Cc1cccnc1)C(=O)N(C)CC(=O)N(C)C [compound 98, MeCO-Pen(3)-N(N(Me)2)-T-7MeW-K(NMeAc)-Pen(3)-AEF(N(Me)2)-2Nal-THP-Dap(Ac)-N-3Pya-Sar-CON(Me)2] (Ac-[Pen]D(NMe2)T[Trp(7-Me)][Lys(Me)](Ac)[Pen]Y(Me2NCH2CH2)[2Nal][Thp][Dap](Ac)N[3Pal][Sar]-NMe2; disulfide 1-6)
4 | 145 | 5.2 | Cc1cccc2c(C[C@@H]3NC(=O)[C@H]([C@@H](C)O)NC(=O)[C@H](CC(=O)N(C)C)NC(=O)[C@@H](NC(=O)CCCCC[N+](C)(C)C)C(C)(C)SSC(C)(C)[C@@H](C(=O)N[C@@H](Cc4ccc(OCCCCC[N+](C)(C)C)cc4)C(=O)N[C@@H](Cc4ccc5ccccc5c4)C(=O)NC4(C(=O)N[C@@H](CCC(=O)N(C)C)C(=O)N[C@@H](CC(N)=O)C(=O)N[C@@H](Cc5cccnc5)C(=O)N(C)CC(=O)N(C)C)CCOCC4)NC(=O)[C@H](CCC(=O)N(C)C)NC3=O)c[nH]c12 [compound 101, 5cpaCO-Pen(3)-N(N(Me)2)-T-7MeW-Q(N(Me)2)-Pen(3)-TMAPF-2Nal-THP-Q(N(Me)2)-N-3Pya-Sar-CON(Me)2] ({Hexanoyl(6-NMe3+)}-[Pen]D(NMe2)T[Trp(7-Me)]E(NMe2)[Pen]Y(X3)[2Nal][Thp]E(NMe2)N[3Pal][Sar]-NMe2; disulfide 1-6)
5 | 153 | 6.5 | CC(=O)N[C@@H]1C(=O)N[C@@H](CC(=O)N(C)C)C(=O)N[C@@H]([C@@H](C)O)C(=O)N[C@@H](Cc2c[nH]c3c(C)cccc23)C(=O)N[C@@H](CCCCN(C)C(C)=O)C(=O)N[C@H](C(=O)N[C@@H](Cc2ccc(OCCN(C)C)cc2)C(=O)N[C@@H](Cc2ccc3ccccc3c2)C(=O)NC2(C(=O)N[C@@H](CCC(=O)O)C(=O)N[C@@H](CC(N)=O)C(=O)N[C@@H](Cc3cccnc3)C(=O)N(C)CC(=O)N(C)C)CCOCC2)C(C)(C)SSC1(C)C [compound 106, MeCO-Pen(3)-N(N(Me)2)-T-7MeW-K(NMeAc)-Pen(3)-AEF(N(Me)2)-2Nal-THP-E-N-3Pya-Sar-CON(Me)2] (Ac-[Pen]D(NMe2)T[Trp(7-Me)][Lys(Me)](Ac)[Pen]Y(Me2NCH2CH2)[2Nal][Thp]EN[3Pal][Sar]-NMe2; disulfide 1-6 (inferred))
6 | 173 | 28 | CC(=O)NCCCC[C@@H]1NC(=O)[C@H](Cc2c[nH]c3c(C)cccc23)NC(=O)[C@H]([C@@H](C)O)NC(=O)[C@H](CC(N)=O)NC(=O)[C@@H](NC(C)=O)C(C)(C)SSC(C)(C)[C@@H](C(=O)N[C@@H](Cc2ccc(OCCN)cc2)C(=O)N[C@@H](Cc2ccc3ccccc3c2)C(=O)NC2(C(=O)N[C@@H](CCC(=O)O)C(=O)N[C@@H](CC(N)=O)C(=O)N[C@@H](Cc3cccnc3)C(=O)N(C)CC(=O)N3CCN(C)CC3)CCOCC2)NC1=O [compound 114] (Ac-[Pen]NT[Trp(7-Me)]K(Ac)[Pen][AEF][2Nal][Thp]EN[3Pal][Sar]-{Piperazinyl(4-Me)}; disulfide 1-6 (inferred))

Second part, the molecule before the results:

Row | Structure (SMILES) | EPSA [1] [A^2] | IC50 (IL-23R) [nM]
7 | Cc1cccc2c(C[C@@H]3NC(=O)[C@H]([C@@H](C)O)NC(=O)[C@H](CC(=O)N(C)C)NC(=O)[C@@H](NC(=O)CCCCC[N+](C)(C)C)C(C)(C)SSC(C)(C)[C@@H](C(=O)N[C@@H](Cc4ccc(OCCN(C)C)cc4)C(=O)N[C@@H](Cc4ccc5ccccc5c4)C(=O)NC4(C(=O)N[C@@H](CCC(=O)N(C)C)C(=O)N[C@@H](CC(N)=O)C(=O)N[C@@H](Cc5cccnc5)C(=O)N(C)CC(=O)N(C)C)CC[N+](C)(C)CC4)NC(=O)[C@H](CCC(=O)N(C)C)NC3=O)c[nH]c12 [compound 100, 5cpaCO-Pen(3)-N(N(Me)2)-T-7MeW-Q(N(Me)2)-Pen(3)-AEF(N(Me)2)-2Nal-Pip(NMe2)-Q(N(Me)2)-N-3Pya-Sar-CON(Me)2] ({Hexanoyl(6-NMe3+)}-[Pen]D(NMe2)T[Trp(7-Me)]E(NMe2)[Pen]Y(Me2NCH2CH2)[2Nal][X63]E(NMe2)N[3Pal][Sar]-NMe2; disulfide 1-6) | 139 | 9.3
8 | CC(=O)NCCCC[C@@H]1NC(=O)[C@H](Cc2c[nH]c3c(C)cccc23)NC(=O)[C@H]([C@@H](C)O)NC(=O)[C@H](CC(N)=O)NC(=O)[C@@H](NC(=O)CCCCC[N+](C)(C)C)C(C)(C)SSC(C)(C)[C@@H](C(=O)N[C@@H](Cc2ccc(OCCN(C)C)cc2)C(=O)N[C@@H](Cc2ccc3ccccc3c2)C(=O)NC2(C(=O)N[C@@H](CNC(C)=O)C(=O)N[C@@H](CC(N)=O)C(=O)N[C@@H](Cc3cccnc3)C(=O)N(C)CC(N)=O)CCOCC2)NC1=O [compound 103] ({Hexanoyl(6-NMe3+)}-[Pen]NT[Trp(7-Me)]K(Ac)[Pen]Y(Me2NCH2CH2)[2Nal][Thp][Dap](Ac)N[3Pal][Sar]-NH2; disulfide 1-6 (inferred)) | 158 | 5.4
9 | COCCOCCN(C)C(=O)CN(C)C(=O)[C@H](Cc1cccnc1)NC(=O)[C@H](CC(N)=O)NC(=O)[C@H](CCC(=O)O)NC(=O)C1(NC(=O)[C@H](Cc2ccc3ccccc3c2)NC(=O)[C@H](Cc2ccc(OCCN)cc2)NC(=O)[C@H]2NC(=O)[C@H](CCCCNC(C)=O)NC(=O)[C@H](Cc3c[nH]c4c(C)cccc34)NC(=O)[C@H]([C@@H](C)O)NC(=O)[C@H](CC(N)=O)NC(=O)[C@@H](NC(C)=O)C(C)(C)SSC2(C)C)CCOCC1 [compound 113] (Ac-[Pen]NT[Trp(7-Me)]K(Ac)[Pen][AEF][2Nal][Thp]EN[3Pal][Sar]-X25; disulfide 1-6 (inferred)) | 169 | 3.8
10 | CC(=O)N[C@@H]1C(=O)N[C@@H](CC(=O)N(C)C)C(=O)N[C@@H]([C@@H](C)O)C(=O)N[C@@H](Cc2c[nH]c3c(C)cccc23)C(=O)N[C@@H](CCC(=O)N(C)C)C(=O)N[C@H](C(=O)N[C@@H](Cc2ccc(OCCN(C)C)cc2)C(=O)N[C@@H](Cc2ccc3ccccc3c2)C(=O)NC2(C(=O)N[C@@H](CCC(=O)N(C)C)C(=O)N[C@@H](CC(N)=O)C(=O)N[C@@H](Cc3cccnc3)C(=O)N(C)CC(=O)N(C)C)CCOCC2)C(C)(C)SSC1(C)C [compound 118, MeCO-Pen(3)-N(N(Me)2)-T-7MeW-Q(N(Me)2)-Pen(3)-AEF(N(Me)2)-2Nal-THP-Q(N(Me)2)-N-3Pya-Sar-CON(Me)2] (Ac-[Pen]D(NMe2)T[Trp(7-Me)]E(NMe2)[Pen]Y(Me2NCH2CH2)[2Nal][Thp]E(NMe2)N[3Pal][Sar]-NMe2; disulfide 1-6 (inferred)) | 138 | 2.1

From patent US20260022143A1, “Cyclic Peptide Inhibitors of IL-23” (JANSSEN PHARMACEUTICA NV, priority 2022, published 2026)
